What was measured:
[1] = LD50; type: in vivo; settings: 70 kg human
[2] = tested on: ACE2; assay: Externalization of ACE2 on cell surface, anti-human ACE2 antibody / horseradish peroxidase staining (FIG. 2); type: cell-based; settings: human brain endothelial cells, 10 mM Diminazene for 3 hours, n=4
Description: FIG. 2 is a graph of externalization of ACE2 on cell surface after treatment with diminazene. The inventors cultured human brain endothelial cells to confluency and exposed these cells to 10 mM Diminazene for 3 hours after which they were fixed in 3.7% phosphate buffered formaldehyde for 30 mins. Cells were then incubated in 1:250 rabbit antibhuman ACE2 (overnite) followed by washes and then goat anti rabbit horseradish peroxidase (1 h).

[3] = in vivo; cited from earlier work
[4] = tested on: viral infection of ACE2 expressing cell monolayers (WT spike); assay: Infectivity of ACE2 expressing cell monolayers by virus (WT spike) (FIGS. 3-6); type: cell-based; settings: for infectivity of cells: concentrations between 1 mM and 0.01 mM
Description: This is equivalent to a high dose of 515 mg/kg (1 mM) to the lowest dose of 5.15 mg/kg (0.01 mM). Assuming 100% biological distribution in a 70 kg human, 10^-4M is a dose of 3.5 g and 10^-5M is 350 mg.
This is equivalent to a high dose of 515 mg/kg (1 mM) to the lowest dose of 5.15 mg/kg.

[5] = tested on: T. congolense-infected mice; settings: cited from earlier work
[6] = tested on: ACE2; type: cell-based

SMILES	LD50 as total dose [1]	average ACE2 signal on cell surface of treated monolayers [2]	LD50 [3]	infectivity of cells ([4]; infectious ratio 1:100 viruses per cell, FIG. 3)	infectivity of cells ([4]; infectious ratio 5:100 viruses per cell, FIG. 4)	infectivity of cells ([4]; infectious ratio 10:100 viruses per cell, FIG. 5)	serum pro-inflammatory cytokine levels [5]	externalization of ACE2 [6]	ACE2-mediated binding and signal of VSV virus-expressing COVID-spike protein in target cells ([6]; target cells, FIG. 1)	infectivity of cells expressing WT spike (amount of green signal produced by viral infection) ([4]; ACE2 expressing cell monolayers, infectious ratio 5:100 viruses per cell, 1 mM to 0.01 mM, FIG. 6)
N=C(N)c1ccc(/N=N/Nc2ccc(C(=N)N)cc2)cc1 [Diminazene, 4,4′-(1-Triazene-1,3-diyl) bis(benzenecarboximidamide)]	~24 grams	increased average signal in treated monolayers consistent with externalization of ACE2 on the cell surface	~350 mg/kg	dose-dependent reduction in the infectivity of cells	dose-dependent reduction in the infectivity of cells	dose-dependent reduction in the infectivity of cells	reduces serum pro-inflammatory cytokine levels			
CC(=O)NCC(=O)O.CC(=O)NCC(=O)O.N=C(N)c1ccc(N=NNc2ccc(C(=N)N)cc2)cc1 [diminazene aceturate]								concentration-dependently causes externalization of ACE2	increases ACE2-mediated binding and signal	dose-dependent reduction in the infectivity of cells expressing WT spike
